Assay results as given in publication PMC6017325, “Cell Penetrating Capacity and Internalization Mechanisms Used by the Synthetic Peptide CIGB-552 and Its Relationship with Tumor Cell Line Sensitivity” (Molecules : A Journal of Synthetic Chemistry and Natural …, 2018).
One block for each substance: values may come before it.

How the values were obtained:
HT-29 [1] = experiment: Internalization assay, flow cytometry, HT-29; assay type: cell-based, human; conditions: FITC-conjugated CIGB-552 5 and 50 μM, 1 h
Experimental: (§1) Cells were seeded in 12-well plates (1 × 10^5 cells/well) and cultured in either D-MEM or RPMI supplemented with Glutamax, 10% (v/v) FBS, at 37 °C for 24 h. For those samples where internalization was analyzed by microscopy, round coverslips were placed into the wells prior to cell seeding. Subsequently, FITC-conjugated CIGB-552, was added to the cells to a final concentration of 5 μM or 50 μM and was incubated for 1 h at either 4 °C or 37 °C. For flow cytometry readout, culture medium was removed, cells were washed using phosphate-buffered saline (PBS) and surface-bound FITC-peptide was quenched with 0.4% (w/v) Trypan Blue solution. Cells were trypsinized and samples were acquired using Cyan ADP Flow Cytometer equipped with a 488 nm laser and a FL1 emission filter (530/40 nm). For data acquisition and analysis Summit v4.3 (Beckman Coulter, Fullerton, CA, USA) and FlowJo v.7.6.5 software (BD, Ashland, OR, USA) were used. For microscopy assays, cells were fixed in 4% (w/v) paraformaldehyde (PFA) for 15min, permeabilized using 0.2% (v/v) Tween 20 solution in PBS, and nuclei were stained using TOPRO-3 (1 μM, Life Technologies) and CellMask^TM membrane marker (1:2000, Life Technologies).
(§2) Data was expressed as the mean ± Standard Deviation of triplicates of one representative experiment, three independent experiments were executed. […]

MCF-7 [2] = conditions: MCF-7 cell line; read-out: cytotoxicity, IC50 value; cited from earlier work
Description: Table 1 CIGB-552 cytotoxicity in H460, HT-29 and MCF-7 cell lines (expressed by the IC50 value in μM); D-amino acids are indicated in small and italic characters. | column: MCF-7

MCF-7 [3] = experiment: Internalization assay, flow cytometry, MCF-7; assay type: cell-based, human; conditions: FITC-conjugated CIGB-552 5 and 50 μM, 1 h
Experimental: as §1, §2

H460 [4] = experiment: Internalization assay, flow cytometry, H460; assay type: cell-based, human; conditions: FITC-conjugated CIGB-552 5 and 50 μM, 1 h
Experimental: as §1
Data was expressed as the mean ± Standard Deviation of triplicates of one representative experiment, three independent experiments were executed. Statistic calculations were performed using Statistica software (STATSOFT, Hamburg, Germany). Differences were considered statistically significant when p < 0.05 using Mann-Whitney U Test.

HT-29 [5] = conditions: HT-29 cell line; read-out: cytotoxicity, IC50 value; cited from earlier work
Description: Table 1 CIGB-552 cytotoxicity in H460, HT-29 and MCF-7 cell lines (expressed by the IC50 value in μM); D-amino acids are indicated in small and italic characters. | column: HT-29

H460 [6] = conditions: H460 cell line; read-out: cytotoxicity, IC50 value; cited from earlier work
Description: Table 1 CIGB-552 cytotoxicity in H460, HT-29 and MCF-7 cell lines (expressed by the IC50 value in μM); D-amino acids are indicated in small and italic characters. | column: H460

COMMD1 protein = target: T1, COMMD1 protein (Homo sapiens, UniProt Q8N668); experiment: Protein complementation assay (PCA), Venus; assay type: cell-based; conditions: MCF-7 and H460 cells co-transfected with Venus 1 / Venus 2 plasmids containing COMMD1 or L2; confocal microscopy
T1 construct: Venus fragment (Venus 1 or Venus 2); expressed in transfected cells; host or cells: MCF-7 and H460 cells, co-transfected with pCDNA3.1 Venus 1 / Venus 2 plasmids using Lipofectamine 2000
Experimental: L2 peptide, which was chemically modified in its primary structure to generate the CIGB-552, was used for the protein complementation assay. Cells were seeded in 12-well plates containing round coverslips (1 × 10^5 cells/well) and cultured in either DMEM or RPMI supplemented with Glutamax, 10% (v/v) FBS, at 37 °C for 24 h. Cells were co-transfected with the plasmids pCDNA3.1 Venus 1 and pCDNA3.1 Venus 2 each one containing either COMMD1 protein or L2 peptide. Transfection was performed with Lipofectamine 2000 (Thermo Fisher, Waltham, MA, USA) using a ratio of 1:2 DNA:lipofectamine ([…]). […]
All images were taken using laser confocal microscope Leica TCS SP5 equipped with a 63X NA 1.42 oil immersion objective (Leica Microsystems, Wetzlar, Germany). […] Quantification of the number of fully loaded cells was performed using 10 single optical sections for each cell line by using the Manual Counting plugin provided in Icy 1.9.5.1v imaging software. In order to assess fluorescence intensity both in cytoplasm and nuclei, images were taken in identical conditions (laser power, photomultiplier voltage, line and frame average and zoom) for all cell lines and 10 single optical sections were used for the analysis. […]

[7] = MFI at 4 °C referred to MFI at 37 °C

T1 sequence (Q8N668 whole entry, the tested form may be a part): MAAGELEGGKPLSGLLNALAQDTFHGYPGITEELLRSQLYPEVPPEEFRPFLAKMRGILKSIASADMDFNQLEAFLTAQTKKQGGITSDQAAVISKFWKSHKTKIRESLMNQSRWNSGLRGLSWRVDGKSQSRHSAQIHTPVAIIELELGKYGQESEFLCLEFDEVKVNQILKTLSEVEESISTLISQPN

Substance: Ac-HARIKpTFRRlKWKYKGKFW [CIGB-552, twenty-amino-acid novel synthetic peptide, AMP-derived, cell penetrating, pro-apoptotic through COMMD1]
temperature effect on internalization (HT-29 [1]; 4 °C versus 37 °C): higher reduction in internalization levels
contribution of the transduction mechanism to internalization (HT-29 [1]; [7]): less than 50%
IC50 (MCF-7 [2]): 338 ± 39 µM
temperature effect on internalization (MCF-7 [3]; 4 °C versus 37 °C): reduction in the internalization
contribution of the transduction mechanism to internalization (MCF-7 [3]; [7]): more than 50%
temperature effect on internalization (H460 [4]; 4 °C versus 37 °C): higher reduction in internalization levels
internalization levels (median fluorescent intensity, MFI) (H460 [4]; 37 °C, surface-bound peptide quenched with 0.4% Trypan Blue): highest internalization levels
contribution of the transduction mechanism to internalization (H460 [4]; [7]): less than 50%
IC50 (HT-29 [5]): 166 ± 66 µM
IC50 (H460 [6]): 23 ± 8 µM

in situ interaction with COMMD1 (fluorescence emission of Venus protein) (COMMD1 protein): likely to interact
Substance: HARIKPTFRRLKWKYKGKFW [L2]
